{"source": "paper PMC7026418", "about": "“The kinase polypharmacology landscape of clinical PARP inhibitors” (Scientific Reports, 2020)", "assay_in_all_cases": "biochemical", "design_in_all_cases": "DiscoveRx KINOMEscan active site-directed competition binding; percent of control kinase bound to immobilised ligand", "key": {"p38-gamma": {"target": "T1, p38-gamma (Homo sapiens, UniProt P53778)", "T1 construct": "gene MAPK12", "T1 sequence (P53778 1-367)": "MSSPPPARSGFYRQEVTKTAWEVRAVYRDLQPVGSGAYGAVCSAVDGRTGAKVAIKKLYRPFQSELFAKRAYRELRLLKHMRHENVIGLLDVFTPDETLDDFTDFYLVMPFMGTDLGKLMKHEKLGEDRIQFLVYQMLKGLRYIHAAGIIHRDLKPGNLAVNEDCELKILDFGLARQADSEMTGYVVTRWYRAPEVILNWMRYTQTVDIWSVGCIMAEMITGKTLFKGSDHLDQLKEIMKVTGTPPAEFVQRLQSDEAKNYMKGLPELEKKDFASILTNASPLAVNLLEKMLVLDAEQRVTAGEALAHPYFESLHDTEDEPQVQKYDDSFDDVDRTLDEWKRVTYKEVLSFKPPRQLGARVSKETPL"}, "CTK": {"target": "T2, CTK (Homo sapiens, UniProt P42679)", "T2 construct": "gene MATK", "T2 sequence (P42679 1-507)": "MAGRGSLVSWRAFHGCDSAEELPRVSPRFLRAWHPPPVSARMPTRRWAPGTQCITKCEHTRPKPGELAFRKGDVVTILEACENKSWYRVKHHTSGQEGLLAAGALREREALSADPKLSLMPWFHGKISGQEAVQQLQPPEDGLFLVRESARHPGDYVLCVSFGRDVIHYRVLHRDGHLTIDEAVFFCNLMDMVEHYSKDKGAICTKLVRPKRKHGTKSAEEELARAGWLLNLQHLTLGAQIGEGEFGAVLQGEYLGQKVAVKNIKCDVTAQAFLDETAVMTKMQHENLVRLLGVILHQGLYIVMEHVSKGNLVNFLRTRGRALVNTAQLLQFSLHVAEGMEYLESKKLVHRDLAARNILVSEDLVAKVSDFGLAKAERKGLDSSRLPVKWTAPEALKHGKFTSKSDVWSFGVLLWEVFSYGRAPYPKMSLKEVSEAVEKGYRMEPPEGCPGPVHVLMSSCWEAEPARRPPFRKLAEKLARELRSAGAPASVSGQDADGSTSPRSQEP"}, "EPHB1": {"target": "T3, EPHB1 (Homo sapiens, UniProt P54762)", "T3 sequence (P54762 1-984)": "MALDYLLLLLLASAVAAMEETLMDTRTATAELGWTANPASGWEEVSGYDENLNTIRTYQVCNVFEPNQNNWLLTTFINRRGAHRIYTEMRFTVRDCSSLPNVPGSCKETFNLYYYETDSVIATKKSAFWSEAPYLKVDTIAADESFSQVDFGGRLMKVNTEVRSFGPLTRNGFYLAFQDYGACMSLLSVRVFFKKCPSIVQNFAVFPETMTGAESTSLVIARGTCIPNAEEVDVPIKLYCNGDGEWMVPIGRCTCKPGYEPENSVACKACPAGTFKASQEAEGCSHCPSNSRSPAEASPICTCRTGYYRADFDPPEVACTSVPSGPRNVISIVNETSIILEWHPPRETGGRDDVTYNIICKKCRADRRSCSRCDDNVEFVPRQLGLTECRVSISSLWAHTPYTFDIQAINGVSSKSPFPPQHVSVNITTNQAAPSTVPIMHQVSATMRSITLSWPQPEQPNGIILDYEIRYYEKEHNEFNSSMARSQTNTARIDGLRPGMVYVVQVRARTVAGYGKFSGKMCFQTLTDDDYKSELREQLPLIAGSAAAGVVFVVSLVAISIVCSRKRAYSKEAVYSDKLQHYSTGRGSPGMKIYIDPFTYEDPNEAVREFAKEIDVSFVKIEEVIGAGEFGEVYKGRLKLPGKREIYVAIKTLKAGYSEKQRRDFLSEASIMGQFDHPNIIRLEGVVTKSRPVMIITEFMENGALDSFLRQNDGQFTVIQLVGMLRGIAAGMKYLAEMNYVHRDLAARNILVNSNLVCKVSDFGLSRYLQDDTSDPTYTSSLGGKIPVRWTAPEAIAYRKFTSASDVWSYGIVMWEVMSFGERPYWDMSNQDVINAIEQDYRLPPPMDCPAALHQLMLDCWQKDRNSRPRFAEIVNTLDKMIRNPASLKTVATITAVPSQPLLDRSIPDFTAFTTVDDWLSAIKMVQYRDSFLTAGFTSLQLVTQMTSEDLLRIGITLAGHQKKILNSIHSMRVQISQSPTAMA"}, "TLK1": {"target": "T4, TLK1 (Homo sapiens, UniProt Q9UKI8)", "T4 sequence (Q9UKI8 1-766)": "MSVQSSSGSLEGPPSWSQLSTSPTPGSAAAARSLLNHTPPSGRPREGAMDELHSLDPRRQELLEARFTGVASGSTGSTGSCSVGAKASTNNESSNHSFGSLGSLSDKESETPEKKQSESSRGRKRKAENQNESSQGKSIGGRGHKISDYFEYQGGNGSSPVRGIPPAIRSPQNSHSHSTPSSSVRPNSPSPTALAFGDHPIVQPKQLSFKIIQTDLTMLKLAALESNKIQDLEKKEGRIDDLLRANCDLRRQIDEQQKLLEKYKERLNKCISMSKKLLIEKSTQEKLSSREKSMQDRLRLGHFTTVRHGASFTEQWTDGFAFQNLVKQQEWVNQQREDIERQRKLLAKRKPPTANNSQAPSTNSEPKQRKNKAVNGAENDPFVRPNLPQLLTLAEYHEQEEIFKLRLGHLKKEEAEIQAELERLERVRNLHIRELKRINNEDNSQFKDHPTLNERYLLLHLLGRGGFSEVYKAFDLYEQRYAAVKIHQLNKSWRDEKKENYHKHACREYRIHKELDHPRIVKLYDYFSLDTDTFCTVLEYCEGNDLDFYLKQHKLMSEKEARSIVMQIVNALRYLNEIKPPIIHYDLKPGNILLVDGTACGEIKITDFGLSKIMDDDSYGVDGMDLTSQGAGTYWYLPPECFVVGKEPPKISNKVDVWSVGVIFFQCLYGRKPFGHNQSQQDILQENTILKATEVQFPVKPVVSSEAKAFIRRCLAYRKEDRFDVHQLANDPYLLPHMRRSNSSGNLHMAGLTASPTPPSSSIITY"}, "[1]": {"details": "read-out: Niraparib (MK-4827) / %Ctrl @ 10000nM"}, "[2]": {"details": "read-out: Olaparib / %Ctrl @ 10000nM"}, "[3]": {"details": "read-out: Rucaparib / %Ctrl @ 10000nM, binding competition, % of control"}, "[4]": {"details": "read-out: Talazoparib (BMN 673) / %Ctrl @ 10000nM"}}, "note": "Where two headings read alike, the source gives them in different places."}
{"smiles": "NC(=O)c1cccc2cn(-c3ccc([C@@H]4CCCNC4)cc3)nc12", "note": "[Niraparib]", "values": [{"measurement": "percent of control binding at 10 µM", "setting": "p38-gamma; [1]", "value": 48, "unit": "%"}, {"measurement": "percent of control binding at 10 µM", "setting": "CTK; [1]", "value": 100, "unit": "%"}, {"measurement": "percent of control binding at 10 µM", "setting": "EPHB1; [1]", "value": 76, "unit": "%"}, {"measurement": "percent of control binding at 10 µM", "setting": "TLK1; [1]", "value": 85, "unit": "%"}]}
{"smiles": "O=C(c1cc(Cc2n[nH]c(=O)c3ccccc23)ccc1F)N1CCN(C(=O)C2CC2)CC1", "note": "[Olaparib]", "values": [{"measurement": "percent of control binding at 10 µM", "setting": "p38-gamma; [2]", "value": 83, "unit": "%"}, {"measurement": "percent of control binding at 10 µM", "setting": "CTK; [2]", "value": 96, "unit": "%"}, {"measurement": "percent of control binding at 10 µM", "setting": "EPHB1; [2]", "value": 99, "unit": "%"}, {"measurement": "percent of control binding at 10 µM", "setting": "TLK1; [2]", "value": 94, "unit": "%"}]}
{"smiles": "CNCc1ccc(-c2[nH]c3cc(F)cc4c3c2CCNC4=O)cc1", "note": "[Rucaparib]", "values": [{"measurement": "percent of control binding at 10 µM", "setting": "p38-gamma; [3]", "value": 58, "unit": "%"}, {"measurement": "percent of control binding at 10 µM", "setting": "CTK; [3]", "value": 76, "unit": "%"}, {"measurement": "percent of control binding at 10 µM", "setting": "EPHB1; [3]", "value": 100, "unit": "%"}, {"measurement": "percent of control binding at 10 µM", "setting": "TLK1; [3]", "value": 94, "unit": "%"}]}
{"smiles": "Cn1ncnc1[C@H]1c2n[nH]c(=O)c3cc(F)cc(c23)N[C@@H]1c1ccc(F)cc1", "note": "[Talazoparib]", "values": [{"measurement": "percent of control binding at 10 µM", "setting": "p38-gamma; [4]", "value": 60, "unit": "%"}, {"measurement": "percent of control binding at 10 µM", "setting": "CTK; [4]", "value": 78, "unit": "%"}, {"measurement": "percent of control binding at 10 µM", "setting": "EPHB1; [4]", "value": 94, "unit": "%"}, {"measurement": "percent of control binding at 10 µM", "setting": "TLK1; [4]", "value": 99, "unit": "%"}]}
